Test results taken from PubChem BioAssay (NCI).
Where “and” joins values, the source holds several entries; their conditions need not be identical. Equal entries are not always repeated.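 In this assay, cells in 96-well plates receive the compound at five concentrations for 48 hours. Endpoints are linearly interpolated between the surrounding concentrations. GI50 is the concentration that inhibits growth by half. Definition used: TGI = concentration required for complete inhibition of growth.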

How the values were obtained:
Experiment in all cases: NCI-60 cell line screen, 48 h
[1] = test system: KM12 colon
[2] = test system: A549 NSCLC
[3] = test system: MALME-3M melanoma
[4] = test system: UO-31 renal
[5] = test system: SK-MEL-2 melanoma
[6] = test system: TK-10 renal
[7] = test system: HCT-15 colon
[8] = test system: SF-268 CNS
[9] = test system: ACHN renal
[10] = test system: OVCAR-5 ovarian

SMILES | TGI [1] [µM] | TGI [2] [µM] | TGI [3] [µM] | TGI [4] [µM] | TGI [5] | TGI [6] [µM] | TGI [7] [µM] | TGI [8] [µM] | TGI [9] [µM] | TGI [10] [µM] | GI50 [5] | GI50 [6] | GI50 [8] | GI50 [4] [µM]
C1=CC2C(C3CN(c4ccccc4)N=C13)C1C3C4C=CC21C=CC43 (stereo not given) | > 100 | > 100 | > 100 | > 100 | > 100 µM | > 100 | > 100 | > 100 | > 100 | > 100 | – | – | – | –
O=c1oc2ccccc2c(O)c1C(c1ccc(OCc2ccccc2)cc1)c1c(O)c2ccccc2oc1=O | > 100 | > 100 | > 100 | 52.5 | > 100 µM | > 100 | > 100 | > 100 | 47.9 | > 100 | – | – | – | –
COC(=O)C1=C(C)NC(C)=C(C(=O)OC)C1c1cccc(/[N+]([O-])=C/c2ccccc2)c1 | > 100 | > 100 | 29.9 | > 100 | > 100 µM | > 100 | 44.9 | > 100 | 31.6 | > 100 | – | – | – | –
Clc1nc2nc(N3CCNCC3)nc(N3CCCC3)c2[nH]1 | 35.9 | 33.1 | 36.3 | 29.6 | 35.4 µM | > 100 | 35.3 | 40.4 | 37.7 | 44.3 | – | – | – | –
N#Cc1ccc(-c2ccc(Cl)cc2)n(C2OC(CO)C(O)C(O)C2O)c1=S (stereo not given) | > 100 | > 100 | > 100 | > 100 | > 100 µM and 52.5 µM | > 100 | > 100 | > 100 | > 100 | > 100 | > 100 µM and 10.6 µM | > 100 µM and 49 µM | > 100 µM and 39.6 µM | –
CCC[N+](C)(C)CCCNC(=O)c1c(O)c2ccccc2[nH]c1=O | > 100 | > 100 | > 100 | > 100 | > 100 µM | > 100 | > 100 | > 100 | > 100 | > 100 | – | – | – | –
CC1(C)C2CC3C(C)(C2)C31c1cc(Cl)ccc1N (stereo not given) | 28.5 | 24.2 | 21.3 | 26.8 | 29.4 µM | 29.1 | 23 | 28.3 | 29 | 29.4 | – | – | – | –
O=c1c2cccnc2oc2c(Cl)cc(-c3nn[nH]n3)cc12 | > 100 | > 100 | > 100 | > 100 | > 100 µM | > 100 | > 100 | > 100 | > 100 | > 100 | – | – | – | –
CCSC12OC3(CCCCCN3C1=O)C1C(=O)N(c3ccccc3)C(=O)C12 (stereo not given) | > 100 | > 100 | > 100 | > 100 | > 100 µM | > 100 | > 100 | > 100 | > 100 | > 100 | – | – | – | –
COP(=O)(CP(=O)(OC)OCCC(C)CCC=C(C)C)OC (stereo not given) | > 100 | > 100 | > 100 | > 100 | > 100 µM | > 100 | > 100 | > 100 | > 100 | > 100 | – | – | – | –
Cc1cn(C2CC(O)C(Cn3nncc3Cn3nc(Br)c(=O)[nH]c3=O)O2)c(=O)[nH]c1=O (stereo not given) | > 100 | > 100 | > 100 | > 100 | > 100 µM | > 100 | > 100 | > 100 | > 100 | > 100 | – | – | – | –
COc1cc(C(c2ccccc2)N2C(=O)CC[C@H]2C(=O)O)cc(OC)c1OC (stereo not given in full) | > 100 | > 100 | > 100 | > 100 | > 100 µM | > 100 | > 100 | > 100 | > 100 | > 100 | – | – | – | –
CC1(C)CC(=O)C(CC2C(=O)CCCC2=O)C(=O)C1 | > 100 | > 100 | > 100 | > 100 | > 100 µM | > 100 | > 100 | > 100 | > 100 | > 100 | – | – | – | –
C=CC(=O)N1C/C(=C\c2ccc(OC)cc2)C(=O)/C(=C/c2ccc(OC)cc2)C1 | 5.22 | 8.16 | 8.4 | 3.52 | 8.57 µM | > 36.1 | 4.23 | 17.1 | 3.47 | 16.2 | – | – | – | –
CCOP(=O)(OCC)/C(=C/n1c(=S)[nH]c2ccccc21)C(=O)OC | > 100 | > 100 | > 100 | > 100 | > 100 µM | > 100 | > 52.2 | > 100 | > 100 | > 100 | – | > 100 µM | – | > 100
Cc1ccc(C)n1-c1ccccc1C1C=Cn2c(=O)oc3c(OC(C)C)c(OC(C)C)c(O)c1c32 (stereo not given) | > 100 | > 100 | > 100 | 31.9 | 78.2 µM | > 100 | > 100 | > 100 | > 100 | > 100 | – | – | – | –
N#Cc1c(/C=C/c2ccccc2)c2c([nH]c1=S)CCCCC2 | > 100 | > 100 | > 100 | > 100 | > 100 µM | > 100 | > 100 | > 100 | > 100 | > 100 | – | – | – | –
OC(CCN1CCN(CCOC(c2ccccc2)c2ccccc2)CC1)c1ccccc1 (stereo not given) | 51.1 | > 100 | 32.6 | 44 | 31.6 µM | 59.8 | 37.1 | 57 | > 100 | > 100 | – | – | – | –
Cc1cc(N(CCC#N)CCC#N)ccc1/C(N=Nc1ccc(C(=O)O)cc1)=N\NC(=O)c1ccccc1 | > 100 | > 100 | > 100 | > 100 | > 100 µM | > 100 | > 100 | > 100 | > 100 | > 100 | – | – | – | –

SMILES | TGI [1] [µM] | TGI [2] [µM] | TGI [3] [µM] | TGI [4] [µM] | TGI [5] | TGI [6] [µM] | TGI [7] [µM] | TGI [8] [µM] | TGI [9] [µM] | TGI [10] [µM] | GI50 [5] | GI50 [6] | GI50 [8] | GI50 [4] [µM]
COc1ccc(C2N(c3ccc(C)c(N=C=O)c3)C(=O)N3C(c4ccc(OC)cc4)N(c4ccc(C)c(N=C=O)c4)C(=O)N23)cc1 (stereo not given) | > 100 | > 100 | 96.1 | > 100 | > 100 µM | > 100 | > 100 | > 100 | > 100 | > 100 | – | – | – | –
COc1ccc(NC(=O)CSC(=O)c2ccccc2)c(SCCSSCCSc2cc(OC)ccc2NC(=O)CSC(=O)c2ccccc2)c1 | > 100 | > 100 | > 100 | > 100 | > 100 µM | > 100 | > 100 | > 100 | > 100 | > 100 | – | – | – | –
O=C1C(c2ccccc2)=C(c2ccccc2)C1(Cl)Cl | 19.2 | 27.4 | 7.56 | 13.5 | 8.7 µM | 2.81 | 4.51 | 12.7 | 7.09 | 20.8 | – | – | – | –
CCCCCCCCCCCC(=O)N(CCCCCCCCC)CC(O)C(O)C(OC1OC(CO)C(O)C(O)C1O)C(O)CO (stereo not given) | 31.2 | 43.5 | 37.7 | 30.9 | 43.9 µM | 29.8 | 34.5 | 39.3 | 32.1 | 49.3 | – | – | – | –
O=C(O)C(Cc1ccccc1)Cc1ccccc1 | > 100 | > 100 | > 100 | > 100 | > 100 µM | > 100 | > 100 | > 100 | > 100 | > 100 | – | – | – | –
O=C(CCCCCNC(=O)c1ccc(Cl)cc1)NO | > 100 | 81.9 | > 100 | 37.8 | 7.22 µM | 16.4 | > 100 | 57.1 | 41.6 | 8.43 | – | – | – | –
C=C(C)C1(Sc2ccc(OC)cc2)CC1 | > 100 | > 100 | 66.9 | > 100 | 56.5 µM | > 100 | > 100 | 67 | > 100 | > 100 | – | – | – | –
COc1cc2nc(-c3cccs3)nc(Nc3ccccc3C(=O)NN)c2cc1OC | > 100 | > 100 | > 100 | > 100 | > 100 µM | > 100 | > 100 | > 100 | > 100 | > 100 | – | – | – | –
COc1cc2c3c(n(C)c(=O)c2cc1OC)-c1cc2c(cc1/C3=C\CCCCl)OCO2 | 70.1 | > 100 | > 100 | > 100 | 98.9 µM | 37.3 | > 100 | > 100 | > 100 | > 100 | – | – | – | –
N#CC1=C(O)NC(O)=C(C#N)C1c1c(Cl)cccc1Cl | 71.5 | > 100 | > 100 | > 100 | 52.3 µM | > 100 | 51.9 | > 100 | > 100 | 98.5 | – | – | – | –
O=[N+]([O-])c1c(O)c2nonc2c2nn(-c3ccccc3)nc12 | > 100 | > 100 | > 100 | > 100 | > 100 µM | > 100 | > 100 | > 100 | > 100 | > 100 | – | – | – | –
CCOC(=O)Cc1[nH]c(C(=O)c2ccccc2)cc1C(=O)c1ccccc1 | > 100 | 66.8 | > 100 | > 10 | > 100 µM | > 100 | > 100 | > 100 | > 10 | > 10 | – | – | – | –
NS(=O)(=O)c1ccc(-c2ccc([As](=O)(O)O)cc2)cc1 | > 100 | > 100 | > 100 | > 100 | > 100 µM | > 100 | > 100 | > 100 | > 100 | > 100 | – | – | – | –
COC(=O)NC(Cc1ccccc1)NC(=O)OC(C)(C)C (stereo not given) | > 100 | > 100 | > 100 | > 100 | > 100 µM | > 100 | > 100 | > 100 | > 100 | > 100 | – | – | – | –
CSc1nnnc2ccccc12 | > 100 | > 100 | > 100 | > 100 | > 100 µM | > 100 | > 100 | > 100 | > 100 | > 100 | – | – | – | –
O=C(CC(=O)N1N=C(c2ccccc2)C(N=Nc2ccc(S(=O)(=O)CCOS(=O)(=O)O)cc2)C1=O)Nc1ccc(Cl)cc1 (stereo not given) | > 100 | > 100 | > 100 | > 100 | > 100 µM | > 100 | > 100 | > 100 | > 100 | > 100 | – | – | – | –
CC1(C)CCCCCC(O)C(O)CCC(C)(C)C1=O (stereo not given) | > 100 | > 100 | > 100 | > 100 | > 100 µM | > 100 | > 100 | > 100 | > 100 | > 100 | – | – | – | –
CCOC(=O)c1nc2ccccc2nc1Nc1ccc(C(=O)OC)s1 | > 100 | > 100 | > 100 | > 100 | > 100 µM | > 100 | > 100 | > 100 | > 100 | > 100 | – | – | – | –
CCOC(=O)c1sc2nc(SC)nc3c2c1NCN3C | > 100 | > 100 | 57.6 | 37.6 | > 100 µM | > 100 | > 100 | 61.5 | 59.3 | > 100 | – | – | – | –
